Data taken from patent US6461844B1, “Liver GalNAc-1-phosphate kinase” (The Board of Trustees of the University of Arkansas, priority 1995, dated 2002).
Entries after “also recorded” stand apart in the source; their conditions may differ. One block for each compound: values may come before it.

Key:
GalNAc kinase [1] = biological target: T1, GalNAc kinase (Sus scrofa, UniProt A0A287BB25); assay: Effect of sulfhydryl reagents on GalNAc kinase activity; type: biochemical, pig; conditions: for Activity (cpm in Sugar-P): control 8700
T1 construct: This enzyme was purified about 1400-fold from the cytosolic fraction of pig kidney; from tissue; host or cells: pig kidney cytosol
Protocol: (§1) GalNAc kinase activity was assayed in incubation mixtures of 200 μl containing the following components: [^3H]GalNAc (10,000 cpm), 1 μmole of ATP, 2 μmoles of MgCl2, 20 μmoles of Tris-HCl buffer, pH 7.5, and various amounts of the enzyme preparations to be assayed. Following an incubation for the appropriate time, the reaction was stopped by heating at 100° C. for 5 min., and the incubation mixture was applied to a column of DE-52. The column was washed with at least 5 column volumes of 10 mM (NH4)HCO3 buffer to remove unbound material, and then GalNAc phosphate was eluted with 500 mM ammonium bicarbonate. Aliquots of the wash and eluent were removed and assayed for their radioactive content by scintillation counting.
In order to determine whether sulfhydryl groups are necessary for catalytic activity, the effects of various compounds known to react with and inactivate sulfhydryl groups, were examined on the kinase activity.

GalNAc kinase [2] = biological target: T1, GalNAc kinase; assay: Phosphate donor specificity of GalNAc kinase; type: biochemical, pig; set-up: Radioactivity in Sugar-P: unit not given beside the values; conditions: for Radioactivity in Sugar-P / Specific Activity: nucleotide added at 5 mM
GalNAc kinase [3] = biological target: T1, GalNAc kinase; assay: Sugar specificity of GalNAc kinase; type: biochemical, pig; conditions: for Radioactivity Incorp.: labeled sugars of same specific activity
Protocol: as §1
A variety of sugars were tested and in each case the specific radioactivity of the labeled sugar was adjusted with unlabeled material so that all were of the same specific activity in order to allow a true comparison of their ability to serve as substrates for the kinase. The amount of radioactivity that bound to DE-52 and was eluted with (NH4)HCO3 was taken as a measure of phosphorylation by the enzyme.

GalNAc kinase [4] = biological target: T1, GalNAc kinase; assay: Divalent cation requirement of GalNAc kinase; type: biochemical, pig; conditions: for stimulation of the kinase: tested at a variety of concentrations
Protocol: FIG. 1 illustrates the effect of various divalent cations on the GalNAc kinase. Various amounts of Mg^++, Mn^++, or Co^++ were added to incubations prepared as indicated below. The amount of GalNAc phosphorylated in each incubation by the purified enzyme was determined as described in the assay conditions.
as §1
The addition of Mg^++ greatly stimulated the activity, and maximum activity occurred at 6 mM Mg^++. Other divalent cations, such as Mn^++ and Co^++ were also somewhat stimulatory, but much less so than Mg^++.

[5] = tested on: UDP-GlcNAc pyrophosphorylases; conditions: UDP-GlcNAc = 100%; cited from earlier work

T1 sequence (A0A287BB25 1-458): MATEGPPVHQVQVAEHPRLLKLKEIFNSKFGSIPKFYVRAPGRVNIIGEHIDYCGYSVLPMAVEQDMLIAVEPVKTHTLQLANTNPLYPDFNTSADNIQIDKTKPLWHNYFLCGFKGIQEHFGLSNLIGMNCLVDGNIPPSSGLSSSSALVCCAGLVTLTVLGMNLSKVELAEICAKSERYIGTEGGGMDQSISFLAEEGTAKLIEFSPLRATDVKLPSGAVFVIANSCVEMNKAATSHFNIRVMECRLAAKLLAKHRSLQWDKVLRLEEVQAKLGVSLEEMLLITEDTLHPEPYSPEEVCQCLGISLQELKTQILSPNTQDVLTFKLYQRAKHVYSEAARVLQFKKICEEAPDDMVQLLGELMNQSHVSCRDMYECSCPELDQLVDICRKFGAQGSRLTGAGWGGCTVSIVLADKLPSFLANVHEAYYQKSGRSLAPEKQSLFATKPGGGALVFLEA

Compound: NC(=O)CI [IAA, iodoacetamide]
concentration at which effective as an inhibitor (GalNAc kinase [1]): above 1 mM
Activity (cpm in Sugar-P) (GalNAc kinase [1]; inhibitor 0.1 mM): 8260 cpm
Activity (cpm in Sugar-P) (GalNAc kinase [1]; inhibitor 0.5 mM): 7660 cpm
Activity (cpm in Sugar-P) (GalNAc kinase [1]; inhibitor 1 mM): 5490 cpm
Activity (cpm in Sugar-P) (GalNAc kinase [1]; inhibitor 2 mM): 2170 cpm
Activity (cpm in Sugar-P) (GalNAc kinase [1]; inhibitor 4 mM): 658 cpm

Radioactivity in Sugar-P (GalNAc kinase [2]): 900
Specific Activity (GalNAc kinase [2]): 14.1 nmol/mg
Compound: O=c1[nH]cnc2c1ncn2[C@@H]1O[C@H](COP(=O)(O)OP(=O)(O)OP(=O)(O)O)[C@@H](O)[C@H]1O [ITP]
activity as phosphate donor (GalNAc kinase [2]): slight activity; also recorded: some activity

Radioactivity Incorp. (GalNAc kinase [3]; 4 μl enzyme): 475 cpm
Radioactivity Incorp. (GalNAc kinase [3]; 8 μl enzyme): 89 cpm
activity as phosphate acceptor (GalNAc kinase [3]; purified kinase): inactive
Compound: CC(=O)N[C@@H]1C(O)O[C@H](CO)[C@@H](O)[C@@H]1O (stereo partly shown) [ManNAc, N-acetylmannosamine]

cation concentration for maximum (optimum) activity (GalNAc kinase [4]): 2 to 8 mM
maximum activity relative to optimum concentrations of Mg++ (GalNAc kinase [4]; at optimum cation concentration): about 50%
Compound: [Mn+2] [Mn^++]

stimulation of the kinase (GalNAc kinase [4]): inactive
Compound: [Mo+2] [Mo^++]

Compound: CCN1C(=O)C=CC1=O [NEM, N-ethylmaleimide]
inhibition at 500 µM (GalNAc kinase [1]; 0.5 mM, read-out: inhibition of enzymatic activity): 90%
Activity (cpm in Sugar-P) (GalNAc kinase [1]; inhibitor 0.1 mM): 9050 cpm
Activity (cpm in Sugar-P) (GalNAc kinase [1]; inhibitor 0.5 mM): 805 cpm
Activity (cpm in Sugar-P) (GalNAc kinase [1]; inhibitor 1 mM): 40 cpm
Activity (cpm in Sugar-P) (GalNAc kinase [1]; inhibitor 2 mM): 0 cpm
Activity (cpm in Sugar-P) (GalNAc kinase [1]; inhibitor 4 mM): 0 cpm

Compound: [Ni+2] [Ni^++]
stimulation of the kinase (GalNAc kinase [4]): inactive

Compound: CC(=O)N[C@H]1[C@@H](OP(=O)(O)OP(=O)(O)OC[C@H]2O[C@@H](n3ccc(=O)[nH]c3=O)[C@H](O)[C@@H]2O)O[C@H](CO)[C@@H](O)[C@@H]1O [UDP-GlcNAc]
activity towards substrate [5]: 100%

Radioactivity in Sugar-P (GalNAc kinase [2]): 30
Specific Activity (GalNAc kinase [2]): 0.5 nmol/mg
Compound: O=c1ccn([C@@H]2O[C@H](COP(=O)(O)OP(=O)(O)O)[C@@H](O)[C@H]2O)c(=O)[nH]1 [UDP]

Radioactivity in Sugar-P (GalNAc kinase [2]): 180
Specific Activity (GalNAc kinase [2]): 2.8 nmol/mg
Compound: O=c1ccn([C@@H]2O[C@H](COP(=O)(O)OP(=O)(O)OP(=O)(O)O)[C@@H](O)[C@H]2O)c(=O)[nH]1 [UTP]

stimulation of the kinase (GalNAc kinase [4]): inactive
Compound: [Zn+2] [Zn^++]

activity as phosphate donor (GalNAc kinase [2]): No activity
Compound: CC(=O)OP(=O)(O)O [acetylphosphate]

Compound: O=C(O)c1cc[c]([Hg][Cl])cc1 [pCMB, p-chloromercuribenzoate]
inhibition of enzymatic activity (GalNAc kinase [1]; 0.02 mM): over 70%
inhibition of enzymatic activity (GalNAc kinase [1]; 0.04 mM): complete inhibition
Activity (cpm in Sugar-P) (GalNAc kinase [1]; inhibitor 0.02 mM): 2660 cpm
Activity (cpm in Sugar-P) (GalNAc kinase [1]; inhibitor 0.04 mM): 250 cpm
Activity (cpm in Sugar-P) (GalNAc kinase [1]; inhibitor 0.06 mM): 30 cpm
Activity (cpm in Sugar-P) (GalNAc kinase [1]; inhibitor 0.1 mM): 20 cpm
Activity (cpm in Sugar-P) (GalNAc kinase [1]; inhibitor 0.25 mM): 50 cpm

activity as phosphate donor (GalNAc kinase [2]): No activity
Compound: C=C(OP(=O)(O)O)C(=O)O [phosphoenolpyruvate]
